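Five concentrations, 48 hours, 96-well plates. Here, GI50 denotes the concentration required for 50% inhibition of growth.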 Calls of active or inactive are those of the source. Rule as the data show it: active = GI50 up to about 1.1 µM and inactive = higher.
Key:
Assay in all cases: NCI-60 cell line screen, 48 h
OVCAR-8 = test system: OVCAR-8
OVCAR-3 = test system: OVCAR-3
MDA-MB-231 = test system: MDA-MB-231
RPMI-8226 = test system: RPMI-8226
NCI/ADR-RES = test system: NCI/ADR-RES
NCI-H226 = test system: NCI-H226
SF-295 = test system: SF-295
ACHN = test system: ACHN
SN12C = test system: SN12C
Hs-578T = test system: Hs-578T
MDA-N = test system: MDA-N
SF-268 = test system: SF-268
OVCAR-4 = test system: OVCAR-4
HT-29 = test system: HT-29
SW-620 = test system: SW-620
SF-539 = test system: SF-539
NCI-H522 = test system: NCI-H522
CAKI-1 = test system: CAKI-1
SNB-19 = test system: SNB-19

SMILES | GI50 (OVCAR-8) | GI50 (OVCAR-3) | GI50 (MDA-MB-231) | GI50 (RPMI-8226) | GI50 (NCI/ADR-RES) | GI50 (NCI-H226) | GI50 (SF-295) | GI50 (ACHN) | GI50 (SN12C) | GI50 (Hs-578T) | GI50 (MDA-N) | GI50 (SF-268) | GI50 (OVCAR-4) | GI50 (HT-29) | GI50 (SW-620) | GI50 (SF-539) | GI50 (NCI-H522) | GI50 (CAKI-1) | GI50 (SNB-19)
COC(=O)C1(Cc2ccc3c(c2)CCC3)Cc2ccc3c(c2C1)CCC3 (stereo unspecified) | 32.1 µM (inactive) | 20.3 µM (inactive) | 15.6 µM (inactive) | 19.4 µM (inactive) | 20.6 µM (inactive) | 21.1 µM (inactive) | 20.7 µM (inactive) | 24.1 µM (inactive) | 17.5 µM (inactive) | 17.4 µM (inactive) | 13.2 µM (inactive) | 44.4 µM (inactive) | 17.2 µM (inactive) | 14.9 µM (inactive) | 25.2 µM (inactive) | 37.9 µM (inactive) | 18.4 µM (inactive) | 21.6 µM (inactive) | 
N#C/C(C(=S)NCc1ccccc1)=C(/N)N1CCCC1 | > 100 µM (inactive) | > 100 µM (inactive) | > 100 µM (inactive) | > 100 µM (inactive) | > 100 µM (inactive) | > 100 µM (inactive) | > 100 µM (inactive) | > 100 µM (inactive) | > 100 µM (inactive) | > 100 µM (inactive) | > 100 µM (inactive) | > 100 µM (inactive) | > 100 µM (inactive) | > 100 µM (inactive) | > 100 µM (inactive) | > 100 µM (inactive) | > 100 µM (inactive) | > 100 µM (inactive) | > 100 µM (inactive)
COc1cc2c(cc1OC)C(=O)C1(C2)[C@H](c2ccccc2)C2C(=O)c3cc(OC)c(OC)cc3C2[C@H]1c1ccccc1 (stereo partly specified) | > 100 µM (inactive) | > 100 µM (inactive) | > 100 µM (inactive) | > 100 µM (inactive) | > 100 µM (inactive) | > 100 µM (inactive) | > 100 µM (inactive) | 25.8 µM (inactive) | > 100 µM (inactive) | > 100 µM (inactive) | > 100 µM (inactive) | > 100 µM (inactive) | > 100 µM (inactive) | > 100 µM (inactive) | > 100 µM (inactive) | > 100 µM (inactive) | > 100 µM (inactive) | 0.259 µM (active) | > 100 µM (inactive)
Cn1cc(S(=O)(=O)NC(=O)Nc2ccc(Cl)cc2)c(=O)c2ccc(F)cc21 | > 100 µM (inactive) |  | > 100 µM (inactive) | > 100 µM (inactive) | > 100 µM (inactive) | > 100 µM (inactive) | > 100 µM (inactive) | > 100 µM (inactive) | > 100 µM (inactive) | > 100 µM (inactive) | 64.3 µM (inactive) | > 100 µM (inactive) | > 100 µM (inactive) | > 100 µM (inactive) | > 100 µM (inactive) | > 100 µM (inactive) | 32 µM (inactive) | > 100 µM (inactive) | > 100 µM (inactive)
O=C(O)CC(Sc1ccccc1)c1ccccc1 (stereo unspecified) | > 100 µM (inactive) | > 100 µM (inactive) | > 100 µM (inactive) | > 100 µM (inactive) | > 100 µM (inactive) | > 100 µM (inactive) | > 100 µM (inactive) | > 100 µM (inactive) | > 100 µM (inactive) | > 100 µM (inactive) | > 100 µM (inactive) | > 100 µM (inactive) | > 100 µM (inactive) | > 100 µM (inactive) | > 100 µM (inactive) |  | > 100 µM (inactive) | > 100 µM (inactive) | > 100 µM (inactive)
CC(=O)ONC(C(=O)C(C)(C)C)C(=O)C(C)(C)C | > 100 µM (inactive) | > 100 µM (inactive) | > 100 µM (inactive) | > 100 µM (inactive) | > 100 µM (inactive) | > 100 µM (inactive) | > 100 µM (inactive) | > 100 µM (inactive) | > 100 µM (inactive) | > 100 µM (inactive) | > 100 µM (inactive) | > 100 µM (inactive) | > 100 µM (inactive) | > 100 µM (inactive) | > 100 µM (inactive) | > 100 µM (inactive) | > 100 µM (inactive) | > 100 µM (inactive) | > 100 µM (inactive)
CCOc1ccccc1NC(=O)C(=O)C(/C(=N/N)C(=O)OC)c1nc2ccc([N+](=O)[O-])cc2nc1O (stereo unspecified) | > 100 µM (inactive) | > 100 µM (inactive) | > 100 µM (inactive) | > 100 µM (inactive) | > 100 µM (inactive) | > 100 µM (inactive) | > 100 µM (inactive) |  | > 100 µM (inactive) | > 100 µM (inactive) | > 100 µM (inactive) | > 100 µM (inactive) | > 100 µM (inactive) | > 100 µM (inactive) | > 100 µM (inactive) | > 100 µM (inactive) | 58.3 µM (inactive) | > 100 µM (inactive) | 
CCOC(=O)c1ccc(-n2nnc(C(N)=O)c2O)cc1 | > 100 µM (inactive) | > 100 µM (inactive) | > 100 µM (inactive) | > 100 µM (inactive) | > 100 µM (inactive) | > 100 µM (inactive) | > 100 µM (inactive) | > 100 µM (inactive) | > 100 µM (inactive) | > 100 µM (inactive) | > 100 µM (inactive) | > 100 µM (inactive) | > 100 µM (inactive) | > 100 µM (inactive) | > 100 µM (inactive) |  | > 100 µM (inactive) | > 100 µM (inactive) | > 100 µM (inactive)

Reference: ChEMBL document CHEMBL1201862, “PubChem BioAssay data set” (2004)
